From patent publication US9890192B2, “Targeted nitroxide agents” (University of Pittsburgh—of the Commonwealth System of …, priority 2008, dated 2018)
Entries after “also recorded” stand apart in the source; their conditions may differ.

How the values were obtained:
[1] = system: phospholipids in intestinal mucosa; experiment: Peroxidation of phospholipids in gut mucosa after hemorrhagic shock; assay type: in vivo, rat; details: 10 μM intraluminal; 2 h HS
Source text: Assay for peroxidation of phospholipods. Gut mucosal samples were homogenized. Lipids were extracted from homogenates using the Folch procedure, see M. Lees and G. H. Sloan-Stanley, A simple method for isolation and purification of total lipids from animal tissue, J. BIOL. CHEM. 226:497-509 (1957), and resolved by 2D HPTLC (High Performance Thin Layer Chromatography) as previously described, see Kagan, V. E. et al., A role for oxidative stress in apoptosis: Oxidation and externalization of phosphatidylserine is required for macrophage clearance of cell undergoing Fas-mediated apoptosis, J Immunol. 169:487-489 (2002). Spots of phospholipids were scraped from HPTLC plates and phospholipids were extracted from silica. Lipid phosphorus was determined by a micro-method, see Bottcher, C. J. F. et al, A rapid and sensitive sub-micro phosphons determination. Anal Chim Acta. 24: 203-204 (1961).
Oxidized phospholipids were hydrolyzed by pancreatic phospholipase A2 (2 U/μl) in 25 mM phosphate buffer containing 1 mM CaCl2. 0.5 mM EDTA and 0.5 mM sodium dodecyl sulfate (SDS) (pH 8.0, at room temperature for 30 min). Fatty acid hydroperoxides formed were determined by fluorescence HPLC of resorufin stoichiometrically formed during their microperoxidase 11-catalized reduction in presence of Amplex Red (for 40 min at 4° C.) (8). Fluorescence HPLC (Eclipse XDB-C18 column, 5 μm, 150×4.6 mm, mobile phase was composed of 25 mM disodium phosphate buffer (pH 7.0)/methanol (60:40 v/v); excitation wavelength 560 nm, emission wavelength 590 nm) was performed on a Shimadzu LC-100AT HPLC system equipped with fluorescence detector (RF-10Axl) and autosampler (SIL-10AD).
In the subsequent series of in vivo studies, the affect of intraluminal XJB-5-131 on hemorrhage-induced peroxidation of phospholipids in intestinal mucosa was examined. […] In a preferred embodiment, 0.3 mL of test solution filled the lumen of each ileal compartment.
After two hours of HS, samples of ileal mucosa from the gut sacs filled with the vehicle and XJB-5-131 were obtained and compared with ileal mucosa of normal MECs. […]

caspases 3 and 7 = experiment: Caspases 3 and 7 activity assay in gut mucosa after hemorrhagic shock; assay type: in vivo, rat; details: intraluminal XJB-5-131 solution vs vehicle
Procedure: Caspases 3 and 7 activity assay. Caspases 3 and 7 activity was measured using a commercially available assay kit, Caspase Glo™ 3/7 assay kit (Promega, Madison, Wis.). Briefly, 50 μl of rat gut mucosa homogenate (20 jug protein) was mixed with 50 μl of Caspase-Glo™ reagent and incubated at room temperature for 1 hour. At the end of incubation period, the luminescence of each sample was measured using a plate reading chemiluminometer (ML1000, Dynatech Laboratories, Horsham, Pa.). Activity of caspases 3 and 7 was expressed as luminescence intensity (arbitrary units per mg protein). Protein concentrations were determined using the BioRad assay (Bio-Rad Laboratories, Inc., Hercules, Calif.).
After two hours of HS, samples of ileal mucosa from the gut sacs filled with the vehicle and XJB-5-131 were obtained and compared with ileal mucosa of normal MECs. All samples were assayed with caspase 3 or caspase 7 activity as well as the peroxidation of phosphatidylcholine (“PC”), phosphatidylethanolamine (“PE”), phosphatidylserine (“PS”), and cardiolipin (“CL”), summarized in FIG. 7.

[2] = system: rats subjected to volume-controlled hemorrhagic shock; experiment: Survival of rats subjected to volume-controlled hemorrhagic shock; assay type: in vivo, rat; details: 2 μmol/kg intravenous; for survival vs vehicle: last 20 min of hemorrhage
Procedure: Survival of rats subjected to volume-controlled hemorrhagic shock. Following surgical preparation and a 5-min stabilization period to obtain baseline readings, rats were subjected to hemorrhagic shock. Bleeding was carried out in 2 phases.
Initially, 21 ml/kg of blood was withdrawn over 20 min. Immediately thereafter, an additional 12.5 ml/kg of blood was withdrawn over 40 min. Thus, hemorrhage occurred over a total period of 60 min and the total blood loss was 33.5 ml/kg or approximately 55% of the total blood volume. Rats were randomly assigned to receive XJB-5-131 (2 μmol/kg) or its vehicle, a 33:67 (v/v) mixture of DMSO and normal saline. XJB-5-131 solution or vehicle alone was administered as a continuous infusion during the last 20 min of the hemorrhage period. The total volume of fluid infused was 2.8 ml/kg and it was administered intravenously using a syringe pump (KD100, KD Scientific, New Hope, Pa.). […] At the end of the 6 hour observation period, animals that were still alive were euthanized with an overdose of KCl.
A total of sixteen rats were tested in this study. Rats were treated with 2.8 ml/kg of vehicle or the same volume of XJB-5-131 solution during the final 20 min of the bleeding protocol. The total dose of XJB-5-131 infused was 2 μmol/kg. Following profound hemorrhagic shock consistent with the protocol described above for the prior studies, thirteen survived for at least 60 min and received the full dose of either XJB-5-131 solution or the vehicle, a 33:67 (v/v) mixture of DMSO and normal saline. […] None of the between-group differences were statistically significant.

progeroid Ercc1−/Δ mice = experiment: Signs of aging in progeroid Ercc1−/Δ mice; assay type: in vivo, mouse; details: 2 mg/kg intraperitoneally three times per week
Procedure: To assess the effectiveness of XJB-5-131 in inhibiting degeneration and/or signs of aging, the compound was administered, over an 18-21 week period, progeroid Ercc1^−/Δ mice, at a dose of 2 mg/kg in sunflower oil carrier (to promote solubility) administered intraperitoneally three times per week (FIG. 32). Sunflower seed oil was administered to twin Ercc1^−/Δ mice according to the same schedule as a control. The treated and control mice were monitored twice a week for weight and symptom/sign development.
FIG. 33 presents a summary table showing the results of the treatment with XJB-5-131 (“XJB” in this figure), relative to control (sunflower seed oil) after treatment from 5 wks of life until death. The numbers indicate the average age at onset of each age-related symptom for mice treated with XJB-5-131 or vehicle only (oil) (n=5 mice per group). […] Of note, all of the signs of neurodegeneration, including dystonia, trembling, ataxia, wasting and urinary incontinence were delayed in the treated animals, providing strong evidence that XJB-5-131 protects neurons against degenerative changes caused by oxidative stress.
To assess the ability of XJB-5-131 to inhibit deterioration of intervertebral discs (an index of degenerative disease of the vertebra), the level of glycosaminoglycan in the discs in treated and control mice were measured, and the results are shown in FIG. 34. The intervertebral discs of treated mice contained approximately 30 percent more glycosaminoglycan relative to control mice, indicating inhibition of disc degeneration.

`CC(C)C[C@@H](/C=C/[C@H](Cc1ccccc1)C(=O)N1CCC[C@H]1C(=O)N[C@H](C(=O)N[C@@H](CCCNC(=O)OCc1ccccc1)C(=O)NC1CC(C)(C)N([O])C(C)(C)C1)C(C)C)NC(=O)OC(C)(C)C` [XJB-5-131] was tested, and the “peroxidation of phosphatidylcholine (PC)” value [1] was “no effect”, the “peroxidation of phosphatidylethanolamine (PE)” value [1] was “only had a small effect” and the “peroxidation of phosphatidylserine (PS)” value [1] was “no effect”. The “caspase 3 and 7 activity after hemorrhagic shock” value (caspases 3 and 7) was “significantly decreased”, the “rats surviving longer than 3 hours after completion of the hemorrhage protocol” value [2] was “Three of the six” and the “rats surviving the whole 6 hour post-bleeding observation period” value [2] was “one”. For the same compound, the survival vs vehicle [2] was “survived significantly longer”, the survival vs vehicle ([2]; listed as XJR-5-131) was “significantly prolonged the survival” and the “age at onset of age-related symptoms” value (progeroid Ercc1−/Δ mice) was “significantly delayed”. For the same compound, the “body weight / tolerability” value (progeroid Ercc1−/Δ mice) was “did not lose weight; also recorded: does not cause weight loss”, the “glycosaminoglycan in intervertebral discs, more relative to control mice” value (progeroid Ercc1−/Δ mice) was “approximately 30%” and the overall aging score (progeroid Ercc1−/Δ mice) was “significantly improved”. For the same compound, the “signs of neurodegeneration (dystonia, trembling, ataxia, wasting, urinary incontinence)” value (progeroid Ercc1−/Δ mice) was “delayed”.
